In patent US20230346769A1, “USE OF SIMPLE ACYCLIC POLYAMINES FOR THE TREATMENT OF DISEASES CAUSED BY PARASITES OF THE GENUS LEISHMANIA” (Universidad De Granada, priority 2020, published 2023):

Legend:
[1] = system: L. infantum promastigote forms; test: In vitro activity against extracellular (promastigote) forms; assay type: cell-based, Leishmania infantum
Description: (§1) Methodology: Cultures of three Leishmania species, representative of the species causing each of the clinical forms of the disease, were used for these studies. Specifically, strains MCAN/ES/2001/UCM-1 O of L.infantum, isolated and characterised in Madrid from an infected dog; MHOM/BR/1975/M2904 of L.braziliensis, isolated in Brazil in a human case, and LCR-L 133 LRC of L.donovani. isolated in Jerusalem, Israel from a case of kala-azar […] (WHO Technical Reports Series 949. Geneva: WHO. March. The cultures of parasites come from an own collection which was prepared from a biobank project (Biobank and Characterisation Unit of Strains and Species of Trypanosomatids, Responsible for Human, Animal and Plant Pathologies, Cgl-2008-03687-E/Bos.), and are available on request.
(§2) The promastigote forms of the three species studied were cultured in vitro in sterility in single-phase MTL culture medium (Medium Trypanosomes Liquid) made from Hank’s Balanced Salts (Sigma-Aldrich, H6136) enriched with 10% (v/v) of Fetal Bovine Serum (SBF-1) inactivated at 56° C./ 30 minutes. The parasite inoculum to initiate the culture was 5 × 10^4 cells/ml in 5 ml medium in 25 cm^2 Falcon® plastic flasks and kept in an oven at 28° C. The cultures were performed routinely, achieving exponential growth of the flagellates until obtaining the cell mass necessary for the subsequent studies. Both promastigote forms and amastigote forms were used to conduct the assays.
(§3) The promastigote forms of the three Leishmania strains, cultured in the manner described above, were harvested in their exponential growth phase by centrifugation at 400 g for 10 min. The number of parasites was counted in a Neubauer Haemocytometer Counting Chamber and were inoculated in a 24-well plate at a concentration of 5 ×10^4 parasites/well.
(§4) The compounds to be assayed were dissolved in DMSO at a concentration of 0.01% (v/v), concentration at which this solvent is not toxic nor has any effect on the growth of parasites. The compounds were added to the culture medium at final concentrations of 100, 50, 25 and 12.5 µM. […] M. et al. Med. Chem. 2011. 54. 970-979].

[2] = system: L. infantum amastigote forms; test: In vitro activity against intracellular (amastigote) forms in macrophages; assay type: cell-based, Leishmania infantum
Description: as §1
(§5) For the study of the in vitro effect on intracellular forms of Leishmania, the experimental model designed by the group of the present inventors was used [Sánchez-Moreno. M. et al. Med. Chem. 2012, 55, 9900-9913; Sánchez-Moreno. M. et al. J. Antimicrob. Chemother. 2012, 67, 387-397]. The macrophages were detached from the culture flask where they were attached by dry blows. To do this, it was incubated in cold for 5 minutes and after that the flask was hit with the palm of the hand until the cells were detached from the flask. Then, they were passed to a 25 ml capacity steriling conical bottom flask (Deltalab) to centrifuge them at 120 g for 5 minutes, removing the supernatant and were counted in Neubauer’s chamber. Cells were suspended in RPMI medium at a concentration of 1×10^4 cells/well, then cultured in 24-well plates into which a 12 mm round slide had previously been placed into each well. For adherence, the cells were left 24 h at 37° C. in 5% CO2. Subsequently, the cells were infected in vitro by placing Leishmania cells at the rate of 10 parasites/macrophage according to [Sánchez-Moreno. M et al. Med. Chem. 2011, 54, 970-979]. […] The products were allowed to act for 72 hours of incubation.
(§6) After that time, the crystals were removed and fixed with methanol on a slide and allowed to dry, after which DPX microscopy mounting medium (Panreac®) was added to it. Once the preparations had been mounted, they were dyed with Giemsa by diluting Azur-Eosin-Methylene Blue solution according to Giemsa DC (Code 251338) with Sorensen buffer (1:10 dilution). The preparations were covered and allowed to colour for 20 minutes, after which they were washed with distilled water and then allowed to drain and dry vertically. Finally, the amastigote forms were counted with the aim of immersion in a total of 200 cells.

[3] = system: L. braziliensis promastigote forms; test: In vitro activity against extracellular (promastigote) forms; assay type: cell-based, Leishmania braziliensis
Description: as §1, §2, §3, §4

[4] = system: L. braziliensis amastigote forms; test: In vitro activity against intracellular (amastigote) forms in macrophages; assay type: cell-based, Leishmania braziliensis
Description: as §1, §5, §6

[5] = system: L. donovani promastigote forms; test: In vitro activity against extracellular (promastigote) forms; assay type: cell-based, Leishmania donovani
Description: as §1, §2, §3, §4

[6] = system: L. donovani amastigote forms; test: In vitro activity against intracellular (amastigote) forms in macrophages; assay type: cell-based, Leishmania donovani
Description: as §1, §5, §6

[7] = system: J774.2 macrophages; test: Macrophage toxicity by flow cytometry; assay type: cell-based; details: J774.2 macrophages, 72 h of culture
Procedure: Macrophage toxicity: this study used the experimental model designed by the group of inventors [I. Ramírez-Macías. et. al. J. Antimicrob. Chemother. 2011, 66(4): 813-819] wherein flow cytometry is used. Briefly, macrophages from line J774.2 (ECACC number 91051511, obtained from a BALB/c female […] tumour in 1968) were deposited in a steriling tube and centrifuged at 120 g for 5 minutes. The supernatant was discarded and the cells were resuspended in MEM + Glutamine medium with 20% SBF (fetal bovine serum). 1×10^4 cells per well were then deposited from a 24-well titration plate and incubated for 24-48 h at 37° C. in a humid atmosphere enriched with 5% CO2 to fix them. […] After 72 h of incubation, the samples were prepared for reading on a flow cytometer. Specifically, 100 µl of propidium iodide solution (100 µg/ml) was added to each well and incubated for 10 min at 28° C. in the dark. Subsequently, 100 µl/well of fluorescein diacetate (FDA) (Sigma Chemical Co) in solution (100 ng/mL) was added and incubation was repeated under the same conditions for 10 minutes. Cells were recovered by centrifugation at 400 g for 10 minutes and washing the precipitate with PBS. Finally, the results were analysed in a FACS Vantage flow cytometer (Becton Dickinson) taking into account that the cells with the plasma membrane intact emit green colour as the esterases act on the FDA, while the cells that have lost the integrity of the membrane and are not viable, emit in the range close to 580 nm by penetrating the propidium iodide by passive diffusion and specifically binding to the nucleic acids thereof. Thus, to calculate the percentage of viability, the number of dead cells compared to controls was taken into account.

[8] = IC50 of macrophages / IC50 of parasite form

Substance: meglumine antimoniate [Glucantime, reference compound]
- IC50 ([1]; 72 h): 18 ± 3.1 µM
- Selectivity Index (SI) L. infantum Promastigote forms [1, 8]: 0.8
- IC50 ([2]; 72 h): 24.2 ± 2.6 µM
- Selectivity Index (SI) L. infantum Amastigote forms [2, 8]: 0.6
- IC50 ([3]; 72 h): 18 ± 3.1 µM
- Selectivity Index (SI) L. brazilensis Promastigote forms [3, 8]: 0.6
- IC50 ([4]; 72 h): 24.2 ± 2.6 µM
- Selectivity Index (SI) L. brazilensis Amastigote forms [4, 8]: 0.6
- IC50 ([5]; 72 h): 18 ± 3.1 µM
- Selectivity Index (SI) L. donvovani Promastigote forms [5, 8]: 0.7
- IC50 ([6]; 72 h): 24.2 ± 2.6 µM
- Selectivity Index (SI) L. donvovani Amastigote forms [6, 8]: 0.6
- IC50 [7]: 15.2 ± 1 µM
